Consider 25 compounds from patent US10501449B2 (priority 2018, dated 2019).

SMILES strings stand for the structures.

One data set addresses hROMK (human Kir1.1) (Homo sapiens (Human), UniProt P48048). As to the kind of experiment: cell-based. The note with it: CHO T-Rex hROMK stable cell line; thallium flux; 10-point concentration response curve; read-out: Human ROMK Th Flux IC50.
The target of another data set is hERG channels (Homo sapiens (Human), UniProt Q12809). As to the kind of experiment: hERG Manual Patch Clamp Assay. The note with it: human, HEK 293 cells stably expressing hERG channels, pH 7.4, 1 uM, read-out: hERG EP % Inh @ 1 uM. It is filed as cell-based. (Block of hERG is tested as a sign of cardiac risk.)
hERG channels, sequence (Q12809 whole entry): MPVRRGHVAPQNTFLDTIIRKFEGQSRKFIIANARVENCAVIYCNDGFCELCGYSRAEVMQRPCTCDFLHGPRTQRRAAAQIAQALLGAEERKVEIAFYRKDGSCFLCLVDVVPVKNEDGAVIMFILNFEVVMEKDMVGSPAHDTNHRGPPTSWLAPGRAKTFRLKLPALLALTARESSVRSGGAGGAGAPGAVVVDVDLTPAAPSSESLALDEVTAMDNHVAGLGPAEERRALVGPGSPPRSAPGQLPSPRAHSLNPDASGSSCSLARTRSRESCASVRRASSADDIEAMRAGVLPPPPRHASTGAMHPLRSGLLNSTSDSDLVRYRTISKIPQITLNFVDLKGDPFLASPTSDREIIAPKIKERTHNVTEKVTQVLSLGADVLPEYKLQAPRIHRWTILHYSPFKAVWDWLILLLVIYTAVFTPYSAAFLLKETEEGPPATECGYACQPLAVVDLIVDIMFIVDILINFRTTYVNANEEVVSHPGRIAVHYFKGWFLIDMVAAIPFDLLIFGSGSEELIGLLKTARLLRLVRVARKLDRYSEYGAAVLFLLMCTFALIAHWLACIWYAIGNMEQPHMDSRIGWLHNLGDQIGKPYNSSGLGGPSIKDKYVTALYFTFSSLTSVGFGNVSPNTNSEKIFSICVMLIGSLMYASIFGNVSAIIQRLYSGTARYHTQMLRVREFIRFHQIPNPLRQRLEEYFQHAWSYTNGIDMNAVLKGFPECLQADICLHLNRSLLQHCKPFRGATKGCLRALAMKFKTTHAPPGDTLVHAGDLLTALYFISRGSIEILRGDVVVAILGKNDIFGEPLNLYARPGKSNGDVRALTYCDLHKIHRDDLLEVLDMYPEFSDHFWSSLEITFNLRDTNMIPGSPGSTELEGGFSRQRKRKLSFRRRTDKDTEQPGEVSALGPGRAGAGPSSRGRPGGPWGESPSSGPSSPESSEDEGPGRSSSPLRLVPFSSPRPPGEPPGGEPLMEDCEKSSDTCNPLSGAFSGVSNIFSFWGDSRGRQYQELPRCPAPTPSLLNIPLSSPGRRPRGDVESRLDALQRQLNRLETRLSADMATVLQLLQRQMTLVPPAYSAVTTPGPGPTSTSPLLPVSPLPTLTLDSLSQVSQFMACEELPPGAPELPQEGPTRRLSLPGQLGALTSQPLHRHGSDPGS

hROMK (human Kir1.1), sequence (P48048 whole entry): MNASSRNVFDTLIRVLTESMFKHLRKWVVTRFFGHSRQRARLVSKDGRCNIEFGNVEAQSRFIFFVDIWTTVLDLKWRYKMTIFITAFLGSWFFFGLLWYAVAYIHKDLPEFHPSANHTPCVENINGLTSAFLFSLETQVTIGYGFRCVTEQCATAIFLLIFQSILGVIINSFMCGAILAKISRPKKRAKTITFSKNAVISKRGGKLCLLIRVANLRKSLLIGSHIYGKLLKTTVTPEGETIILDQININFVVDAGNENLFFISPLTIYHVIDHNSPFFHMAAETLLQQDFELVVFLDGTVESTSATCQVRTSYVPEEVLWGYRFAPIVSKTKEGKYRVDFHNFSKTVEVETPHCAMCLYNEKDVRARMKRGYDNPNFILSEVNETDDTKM
Description for hROMK (human Kir1.1): Solutions and reagents: Thallium flux assay was performed using FluxOR kit (F10017, Life Technologies). Loading buffer, assay buffer and stimulus buffer were prepared using kit components. HBSS (Hank's balanced salt solution, Cat#14025-092) was purchased separately from Life Technologies.
To prepare 10 ml of loading buffer: 10 μl of FluxOR dye (reconstituted in DMSO) was first added to 100 μl of powerload concentrate and this mix along with 100 μl of Probenicid (100×) was then added to 9.79 ml of HBSS. Assay buffer (10 ml) was prepared by addition of 2 ml of FluxOR chloride free buffer (5×), 100 μl of Probenicid (100×), and 0.2 ml of Ouabain (13.77 mM) to 7.7 ml of deionized water. Stimulus buffer was composed of 15 mM Tl2SO4, 0.75 mM K2SO4 in FluxOR chloride free buffer (diluted to 1× using deionized water). The final concentration of Tl2SO4 and K2SO4 in the assay plate was 3 mM and 0.15 mM, respectively.
Plating and induction of cells: The CHO T-Rex hROMK (human Kir1.1) stable cell line was maintained in Ham's F12 media supplemented with 10% FBS, 1% Penicillin-Streptomycin, 500 μg/ml Zeocin and 10 μg/ml Blasticidin at 37° C. in a 5% CO2 incubator. One day before the experiment, the cells were dissociated by incubation with Versene solution (15040-066, Life Technologies) for 10 minutes at 37° C. followed by addition of growth media. The cell suspension was centrifuged at 1200 rpm for 5 min. After discarding the supernatant, the cells were resuspended in fresh growth media and cell concentration was determined using a hemocytometer. Next, 0.5 μg/ml of Doxycycline was added to the cell suspension to induce hROMK channel expression and 50 μl (10,000 cells/well) of cell suspension was added to each well of a poly-D lysine coated 384 well black, optically clear bottom plate (6007718, Perkin Elmer). The assay plate was kept at 37° C. in a 5% CO2 incubator.
Assay protocol: On the day of experiment, media was removed and loading buffer was added (30 μl/well) to the assay plate. The cells were incubated in the loading buffer for 30 minutes at 37° C. The loading buffer was then replaced by assay buffer (30 μl/well) followed by addition of test compounds or controls. The cells were incubated with compounds for 30 minutes and the plate was then mounted on FlexStation (Molecular Devices) for fluorescence read out with excitation and emission wavelengths at 488 and 525 nm, respectively. Each well was read for 90 sec at 2 sec interval and the stimulus buffer was added after 20 seconds of baseline recording. The final DMSO concentration was either 0.5 or 1% in the assay plate. Positive and negative controls were defined by addition of DMSO or 3 μM of a standard ROMK inhibitor, respectively, to the wells instead of a test compound.
A 10-point concentration response curve was used to estimate the IC50 value of test compounds.

For `Cc1cc(-c2cc(CN3C[C@@H](c4ccc5c(c4C)COC5=O)N[C@@H](C)C3)on2)ncc1C#N` [Example 214-I, 4-methyl-6-(5-(((3S,5R)-3-methyl-5-(4-methyl-1-oxo-1,3-dihydroisobenzofuran-5-yl)piperazin-1-yl)methyl)isoxazol-3-yl)nicotinonitrile], the half-maximal inhibitory concentration (IC50) on hROMK (human Kir1.1) came to 6.6 nM. Besides, the inhibition at 1 µM at hERG channels came to 22%.

In the case of `Cc1c([C@@H]2CN(Cc3cnc(-n4cnc(C#N)c4)nc3)CCN2)ccc2c1COC2=O` [Example 215-I], the half-maximal inhibitory concentration (IC50) on hROMK (human Kir1.1) is 11 nM. In addition, on hERG channels, the inhibition at 1 µM was 29%.

Turning to `Cc1c([C@@H]2CN(Cc3cnc(-n4cnc(C#N)n4)nc3)CCN2)ccc2c1COC2=O` [Example 217-I, (R)-1-(5-((3-(4-methyl-1-oxo-1,3-dihydroisobenzofuran-5-yl)piperazin-1-yl)methyl)pyrimidin-2-yl)-1H-1,2,4-triazole-3-carbonitrile], the IC50 on hROMK (human Kir1.1) amounted to 24 nM. Also, the inhibition at 1 µM at hERG channels came out at 16%.

On to `Cc1c([C@@H]2CN(Cc3cnc(-n4cc(C#N)c(C5CC5)n4)nc3)CCN2)ccc2c1COC2=O` [Example 218-I, (R)-3-cyclopropyl-1-(5-((3-(4-methyl-1-oxo-1,3-dihydroisobenzofuran-5-yl)piperazin-1-yl)methyl)pyrimidin-2-yl)-1H-pyrazole-4-carbonitrile], for which the IC50 on hROMK (human Kir1.1) amounted to 33 nM. For the same compound, on hERG channels, the inhibition at 1 µM is 39%.

Take `Cc1c([C@@H]2CN(Cc3ccc(-n4cc(C#N)c(OC(F)F)n4)nc3)CCN2)ccc2c1COC2=O` [Example 219-I, (R)-3-(difluoromethoxy)-1-(5-((3-(4-methyl-1-oxo-1,3-dihydroisobenzofuran-5-yl)piperazin-1-yl)methyl)pyridin-2-yl)-1H-pyrazole-4-carbonitrile]: on hROMK (human Kir1.1), the half-inhibitory concentration (IC50) came out at 21 nM. Moreover, the inhibition at 1 µM on hERG channels was 75%.

Take `Cc1c([C@@H]2CN(Cc3cnn(-c4cc(N5CCOCC5)c(C#N)cn4)c3)CCN2)ccc2c1COC2=O` [Example 220-I, (R)-6-(4-((3-(4-methyl-1-oxo-1,3-dihydroisobenzofuran-5-yl)piperazin-1-yl)methyl)-1H-pyrazol-1-yl)-4-morpholinonicotinonitrile]: the IC50 on hROMK (human Kir1.1) is 29 nM. Moreover, the inhibition at 1 µM at hERG channels was 30%.

As for `Cc1cn(-c2ccc(CN3CCN[C@H](c4ccc5c(c4C)COC5=O)C3)cn2)nn1` [Example 222-I, (R)-4-methyl-5-(4-((6-(4-methyl-1H-1,2,3-triazol-1-yl)pyridin-3-yl)methyl)piperazin-2-yl)isobenzofuran-1(3H)-one], the IC50 on hROMK (human Kir1.1) is 60 nM. Also, on hERG channels, the inhibition at 1 µM came to 12%.

In the case of `COc1nn(-c2ccc(CN3CCN[C@H](c4ccc5c(c4C)COC5=O)C3)cn2)cc1C#N` [Example 223-I, (R)-3-methoxy-1-(5-((3-(4-methyl-1-oxo-1,3-dihydroisobenzofuran-5-yl)piperazin-1-yl)methyl)pyridin-2-yl)-1H-pyrazole-4-carbonitrile], at hROMK (human Kir1.1), the IC50 was 18 nM. In addition, the inhibition at 1 µM on hERG channels is 56%.

Turning to `Cc1c([C@@H]2CN(Cc3ccc(-n4cc(C#N)nn4)nc3)CCN2)ccc2c1COC2=O` [Example 225-I, (R)-1-(5-((3-(4-methyl-1-oxo-1,3-dihydroisobenzofuran-5-yl)piperazin-1-yl)methyl)pyridin-2-yl)-1H-1,2,3-triazole-4-carbonitrile], at hROMK (human Kir1.1), the IC50 worked out at 19 nM. In addition, the inhibition at 1 µM on hERG channels came to 39%.

Take `CCc1nn(-c2ccc(CN3CCN[C@H](c4ccc5c(c4C)COC5=O)C3)cn2)cc1C#N` [Example 226-I, (R)-3-ethyl-1-(5-((3-(4-methyl-1-oxo-1,3-dihydroisobenzofuran-5-yl)piperazin-1-yl)methyl)pyridin-2-yl)-1H-pyrazole-4-carbonitrile]: the half-inhibitory concentration (IC50) on hROMK (human Kir1.1) turned out to be 14 nM. In addition, the inhibition at 1 µM at hERG channels was determined as 33%.

Take `COc1nn(-c2ncc(CN3CCN[C@H](c4ccc5c(c4C)COC5=O)C3)cn2)cc1C#N` [Example 227-I, (R)-3-methoxy-1-(5-((3-(4-methyl-1-oxo-1,3-dihydroisobenzofuran-5-yl)piperazin-1-yl)methyl)pyrimidin-2-yl)-1H-pyrazole-4-carbonitrile]: the half-inhibitory concentration (IC50) on hROMK (human Kir1.1) was 28 nM. Further, the inhibition at 1 µM on hERG channels stood at 18%.

With `Cc1c([C@@H]2CN(Cc3cnc(-n4cc(C#N)c(C(F)F)n4)nc3)CCN2)ccc2c1COC2=O` [Example 229-I, (R)-3-(difluoromethyl)-1-(5-((3-(4-methyl-1-oxo-1,3-dihydroisobenzofuran-5-yl)piperazin-1-yl)methyl)pyrimidin-2-yl)-1H-pyrazole-4-carbonitrile], the half-maximal inhibitory concentration (IC50) on hROMK (human Kir1.1) was 21 nM. For the same compound, the inhibition at 1 µM at hERG channels came out at 25%.

`Cc1cc(-n2cc(CN3CCN[C@H](c4ccc5c(c4C)COC5=O)C3)c(C(F)F)n2)ncc1C#N` [Example 233-I, (R)-6-(3-(difluoromethyl)-4-((3-(4-methyl-1-oxo-1,3-dihydroisobenzofuran-5-yl)piperazin-1-yl)methyl)-1H-pyrazol-1-yl)-4-methylnicotinonitrile]: the IC50 on hROMK (human Kir1.1) is 22 nM. Also, the inhibition at 1 µM at hERG channels amounted to 31%.

With `Cc1cc(-n2cc(CN3CCN[C@H](c4ccc5c(c4C)COC5=O)C3)c(C3CC3)n2)ncc1C#N` [Example 237-I, (R)-6-(3-cyclopropyl-4-((3-(4-methyl-1-oxo-1,3-dihydroisobenzofuran-5-yl)piperazin-1-yl)methyl)-1H-pyrazol-1-yl)-4-methylnicotinonitrile], the IC50 on hROMK (human Kir1.1) is 69 nM. Also, the inhibition at 1 µM at hERG channels is 37%.

Turning to `Cc1cc(-n2cc(CN3CCN[C@H](c4ccc5c(c4)COC5=O)C3)cn2)ncc1C#N` [Example 239-I, (R)-4-methyl-6-(4-((3-(1-oxo-1,3-dihydroisobenzofuran-5-yl)piperazin-1-yl)methyl)-1H-pyrazol-1-yl)nicotinonitrile], the 50% inhibitory concentration (IC50) on hROMK (human Kir1.1) stood at 63 nM. Further, the inhibition at 1 µM on hERG channels was found to be 18%.

As to `Cc1nn(-c2ccc(CN3CCN[C@H](c4ccc5c(c4C)COC5=O)C3)nc2)cc1C#N` [Example 241-I, (R)-3-methyl-1-(6-((3-(4-methyl-1-oxo-1,3-dihydroisobenzofuran-5-yl)piperazin-1-yl)methyl)pyridin-3-yl)-1H-pyrazole-4-carbonitrile], the IC50 at hROMK (human Kir1.1) is 41 nM. Moreover, at hERG channels, the inhibition at 1 µM is 18%.

For the compound `Cc1cn(-c2ccc(CN3CCN[C@H](c4ccc5c(c4C)COC5=O)C3)cn2)nc1C#N` [Example 242-I, (R)-4-methyl-1-(5-((3-(4-methyl-1-oxo-1,3-dihydroisobenzofuran-5-yl)piperazin-1-yl)methyl)pyridin-2-yl)-1H-pyrazole-3-carbonitrile], the IC50 on hROMK (human Kir1.1) is 10 nM. For the same compound, the inhibition at 1 µM on hERG channels worked out at 36%.

For the compound `Cc1cn(-c2ncc(CN3CCN[C@H](c4ccc5c(c4C)COC5=O)C3)cn2)nc1C#N` [Example 243-I, (R)-4-methyl-1-(5-((3-(4-methyl-1-oxo-1,3-dihydroisobenzofuran-5-yl)piperazin-1-yl)methyl)pyrimidin-2-yl)-1H-pyrazole-3-carbonitrile], on hROMK (human Kir1.1), the IC50 is 13 nM. Further, on hERG channels, the inhibition at 1 µM was found to be 9.8%.

As for `Cc1cc(-n2cc(CN3CC[C@@H](O)[C@H](c4ccc5c(c4C)COC5=O)C3)c(C(F)F)n2)ncc1C#N` [Example 245-I, 6-(3-(difluoromethyl)-4-(((3R,4R)-4-hydroxy-3-(4-methyl-1-oxo-1,3-dihydroisobenzofuran-5-yl)piperidin-1-yl)methyl)-1H-pyrazol-1-yl)-4-methylnicotinonitrile], on hROMK (human Kir1.1), the 50% inhibitory concentration (IC50) is 18 nM. On hERG channels, the inhibition at 1 µM was determined as 17%.

Consider `Cc1c([C@@H]2CN(Cc3cnn(-c4cccc(N5CCOC5=O)n4)c3)C[C@H](C)N2)ccc2c1COC2=O` [Example 249-I, 3-(6-(4-(((3S,5R)-3-methyl-5-(4-methyl-1-oxo-1,3-dihydroisobenzofuran-5-yl)piperazin-1-yl)methyl)-1H-pyrazol-1-yl)pyridin-2-yl)oxazolidin-2-one], for which the IC50 on hROMK (human Kir1.1) stood at 120 nM. The inhibition at 1 µM at hERG channels stood at 9.1%.

In the case of `Cc1cc(-n2cc(CN3CC[C@@H](O)[C@H](c4ccc5c(c4C)COC5=O)C3)n(C)c2=O)ncc1C#N` [Example 250-I, 6-(4-(((3R,4R)-4-hydroxy-3-(4-methyl-1-oxo-1,3-dihydroisobenzofuran-5-yl)piperidin-1-yl)methyl)-3-methyl-2-oxo-2,3-dihydro-1H-imidazol-1-yl)-4-methylnicotinonitrile], the half-maximal inhibitory concentration (IC50) on hROMK (human Kir1.1) was found to be 27 nM. The inhibition at 1 µM at hERG channels turned out to be 20%.

In the case of `Cc1cc(N2CCOC2=O)cc(-n2cc(CN3C[C@@H](c4ccc5c(c4C)COC5=O)N[C@@H](C)C3)cn2)n1` [Example 251-I, 3-(2-methyl-6-(4-(((3S,5R)-3-methyl-5-(4-methyl-1-oxo-1,3-dihydroisobenzofuran-5-yl)piperazin-1-yl)methyl)-1H-pyrazol-1-yl)pyridin-4-yl)oxazolidin-2-one], the IC50 at hROMK (human Kir1.1) was found to be 61 nM. Also, the inhibition at 1 µM at hERG channels is 7.6%.

Consider `Cc1c([C@@H]2CN(Cc3cnn(-c4cccc(N(C)S(C)(=O)=O)n4)c3)C[C@H](C)N2)ccc2c1COC2=O` [Example 252-I, N-methyl-N-(6-(4-(((3S,5R)-3-methyl-5-(4-methyl-1-oxo-1,3-dihydroisobenzofuran-5-yl)piperazin-1-yl)methyl)-1H-pyrazol-1-yl)pyridin-2-yl)methanesulfonamide], for which the half-maximal inhibitory concentration (IC50) on hROMK (human Kir1.1) was found to be 72 nM. For the same compound, the inhibition at 1 µM at hERG channels was found to be 8.8%.

In the case of `Cc1cc(-c2nc(CN3C[C@@H](c4ccc5c(c4C)COC5=O)N[C@@H](C)C3)no2)ncc1C#N` [Example 259-I, 4-methyl-6-(3-(((3S,5R)-3-methyl-5-(4-methyl-1-oxo-1,3-dihydroisobenzofuran-5-yl)piperazin-1-yl)methyl)-1,2,4-oxadiazol-5-yl)nicotinonitrile], the IC50 on hROMK (human Kir1.1) amounted to 53 nM. Besides, the inhibition at 1 µM on hERG channels stood at 8.6%.

`Cc1cc(-n2nnc(CN3C[C@@H](c4ccc5c(c4C)COC5=O)N[C@@H](C)C3)n2)ccc1C#N` [Example 265-I, 2-methyl-4-(5-(((3S,5R)-3-methyl-5-(4-methyl-1-oxo-1,3-dihydroisobenzofuran-5-yl)piperazin-1-yl)methyl)-2H-tetrazol-2-yl)benzonitrile]: the concentration for half-maximal inhibition (IC50) at hROMK (human Kir1.1) came to 22 nM. Further, the inhibition at 1 µM on hERG channels worked out at 20%.

By IC50 is commonly meant the concentration at which inhibition is half-maximal.
